Measurements published in US20120184744A1, “CRYSTALLINE HYDROCHLORIDE SALTS OF C-MET KINASE INHIBITORS” (priority 2009, published 2012).
Structures can show the parent of a compound that is named as a salt. One block for each molecule: values may come before it.

Experiments:
Assay type in all cases: physicochemical
[1] = Slurry experiment in organic solvent:H2O co-solvent (transition water activity, form conversion)
Procedure: This transition water activity was determined based on slurry experiment in Acetone:H2O, DMF:H2O and THF:H2O co-solvent. […] Crystalline mono-HCl salt hydrate dehydrates and converts to mono-HCl salt anhydrate Form II when exposed to low relative humidity or heated at high temperature.
(§1) It rehydrates and converts back to the mono-HCl salt hydrate when exposed to higher than 75% relative humidity at room temperature. The mono-HCl salt anhydrate Form II can also convert to crystalline mono-HCl salt anhydrate Form I when slurried in Acetone:H2O co-solvent or other co-solvent systems with water activity below 0.57-0.60.

[2] = Crystal form conversion on exposure to relative humidity; details: room temperature
Description: as §1
The 1.6-HCl salt anhydrate of Compound A is further characterized by reflections corresponding to d-spacings of 5.03, 4.30, and 4.14 angstroms. The 1.6-HCl salt anhydrate of Compound A is even further characterized by reflections corresponding to d-spacings of 3.93, 3.63, and 3.50 angstroms. The 1.6-HCl salt anhydrate converts to the 1.6-HCl salt hydrate upon exposure to 10-95% relative humidity at room temperature.

[3] = Physical stability of the solid on storage under controlled temperature/relative humidity; details: for physical stability after storage: 5 months
[4] = Solubility in 14.6 wt % IPA in DMF; details: organic solvent or mixture
Procedure: To prepare the mono-HCl salt anhydrate Form I of Compound A, dissolve 1.00 g of Compound A freebase monohydrate in 7.0 mL (6.65 g) DMF at 55° C. Next, charge 0.05 eq of HCl. Then, charge 0.25 wt % media-milled seed ([…] of API). The solubility of Compound A HCl seed in 14.6 wt % IPA in DMF is <2 mg/mL. Age seed bed for 1 hr. Next, charge 0.92 eq of HCl over 8 hrs (linear charge rate) holding batch at 55. No dispersion is required. Total HCl charge is 0.97 eq. Cool the batch from 55° C. to 22° C. over 1 hr. Hold batch at 22° C. for one hour, then filter.

Compound: Cn1cc(-c2cnc3ccc4ccc(CS(=O)(=O)NCc5ccccn5)cc4c(=O)c3c2)cn1 [1.6-HCl salt anhydrate]
- relative humidity at which it converts to the 1.6-HCl salt hydrate [2]: 10-95%

Compound: Cn1cc(-c2cnc3ccc4ccc(CS(=O)(=O)NCc5ccccn5)cc4c(=O)c3c2)cn1 [Form I]
- physical stability after storage ([3]; 40° C./75% relative humidity): physically stable
- physical stability after storage ([3]; room temperature/53% relative humidity): physically stable
- physical stability after storage ([3]; room temperature/85% relative humidity): physically stable
- solid conversion to the mono-HCl salt hydrate ([3]; solid state, on storage): has not been observed

Compound: Cn1cc(-c2cnc3ccc4ccc(CS(=O)(=O)NCc5ccccn5)cc4c(=O)c3c2)cn1 [Compound A HCl seed]
- solubility [4]: < 2000 µg/mL

Next, values leading:

- water activity at which it converts to mono-HCl salt anhydrate Form I ([1]; slurried in Acetone:H2O co-solvent or other co-solvent systems): 0.57-0.60
- relative humidity at which it rehydrates and converts back to the mono-HCl salt hydrate [2]: higher than 75%
Compound: Cn1cc(-c2cnc3ccc4ccc(CS(=O)(=O)NCc5ccccn5)cc4c(=O)c3c2)cn1 [mono-HCl salt anhydrate Form II]

- transition water activity above which the mono-HCl salt hydrate is thermodynamically more stable than mono-HCl salt anhydrate Form I ([1]; room temperature or 40° C., slurry in Acetone:H2O, DMF:H2O and THF:H2O co-solvent): 0.57-0.60
Compound: Cn1cc(-c2cnc3ccc4ccc(CS(=O)(=O)NCc5ccccn5)cc4c(=O)c3c2)cn1 [mono-HCl salt hydrate]
